According to the supplement of paper PMC11451515:

System: P12-Ichikawa
Assay: cell viability relative to DMSO control; higher = less cytotoxic
Details: 48 h
How it was run: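 NOMO1, SEM and P12-Ichikawa leukemia cells spent at least four passages adapting to each medium before use. They were seeded at 500 cells/well (NOMO1, SEM) or 1000 cells/well (P12-Ichikawa) in 5 μl in 1536-well plates and pin-dosed with library compounds in DMSO at 11 threefold steps from 47 μM down to 0.79 nM. After 48 h at 37°C, CellTiter-Glo One luminescence was read. Viability is reported as a percentage of the DMSO wells on each plate, with cell-free wells as background.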

[1] = HPLM + 10% dialyzed FBS, 0.000781 µM
[2] = HPLM + 10% dialyzed FBS, 0.00234 µM
[3] = HPLM + 10% dialyzed FBS, 0.00702 µM
[4] = HPLM + 10% dialyzed FBS, 0.0211 µM
[5] = HPLM + 10% dialyzed FBS, 0.0632 µM
[6] = HPLM + 10% dialyzed FBS, 0.19 µM
[7] = HPLM + 10% dialyzed FBS, 0.569 µM
[8] = HPLM + 10% dialyzed FBS, 1.71 µM
[9] = HPLM + 10% dialyzed FBS, 5.12 µM
[10] = HPLM + 10% dialyzed FBS, 15.4 µM
[11] = HPLM + 10% dialyzed FBS, 46.1 µM
[12] = RPMI 5 mM glucose + 10% FBS, 0.000781 µM
[13] = RPMI 5 mM glucose + 10% FBS, 0.00234 µM
[14] = RPMI 5 mM glucose + 10% FBS, 0.00702 µM
[15] = RPMI 5 mM glucose + 10% FBS, 0.0211 µM
[16] = RPMI 5 mM glucose + 10% FBS, 0.0632 µM
[17] = RPMI 5 mM glucose + 10% FBS, 0.19 µM
[18] = RPMI 5 mM glucose + 10% FBS, 0.569 µM
[19] = RPMI 5 mM glucose + 10% FBS, 1.71 µM
[20] = RPMI 5 mM glucose + 10% FBS, 5.12 µM
[21] = RPMI 5 mM glucose + 10% FBS, 15.4 µM
[22] = RPMI 5 mM glucose + 10% FBS, 46.1 µM
[23] = RPMI 5 mM glucose + 10% dialyzed FBS, 0.000781 µM
[24] = RPMI 5 mM glucose + 10% dialyzed FBS, 0.00234 µM
[25] = RPMI 5 mM glucose + 10% dialyzed FBS, 0.00702 µM
[26] = RPMI 5 mM glucose + 10% dialyzed FBS, 0.0211 µM
[27] = RPMI 5 mM glucose + 10% dialyzed FBS, 0.0632 µM
[28] = RPMI 5 mM glucose + 10% dialyzed FBS, 0.19 µM
[29] = RPMI 5 mM glucose + 10% dialyzed FBS, 0.569 µM
[30] = RPMI 5 mM glucose + 10% dialyzed FBS, 1.71 µM
[31] = RPMI 5 mM glucose + 10% dialyzed FBS, 5.12 µM
[32] = RPMI 5 mM glucose + 10% dialyzed FBS, 15.4 µM
[33] = RPMI 5 mM glucose + 10% dialyzed FBS, 46.1 µM

Row | SMILES | cell viability [1] [%] | cell viability [2] [%] | cell viability [3] [%] | cell viability [4] [%] | cell viability [5] [%] | cell viability [6] [%] | cell viability [7] [%] | cell viability [8] [%] | cell viability [9] [%] | cell viability [10] [%] | cell viability [11] [%] | cell viability [12] [%] | cell viability [13] [%] | cell viability [14] [%] | cell viability [15] [%] | cell viability [16] [%] | cell viability [17] [%] | cell viability [18] [%] | cell viability [19] [%] | cell viability [20] [%] | cell viability [21] [%] | cell viability [22] [%] | cell viability [23] [%] | cell viability [24] [%] | cell viability [25] [%] | cell viability [26] [%] | cell viability [27] [%] | cell viability [28] [%] | cell viability [29] [%] | cell viability [30] [%] | cell viability [31] [%] | cell viability [32] [%] | cell viability [33] [%]
1 | C[C@]12COC(=O)C[C@@H]1CC[C@@H]1[C@@H]2CC[C@@]2(C)[C@H]1CC[C@]2(C)O | 105 | 107 | 117 | 107 | 110 | 102 | 107 | 103 | 102 | 100 | 88.1 | 106 | 109 | 101 | 100 | 107 | 105 | 113 | 98.3 | 101 | 103 | 97.4 | 101 | 98.6 | 97.5 | 104 | 92.3 | 101 | 99.2 | 104 | 94.1 | 98.7 | 95.2
2 | CCN1CCN(c2ccc(Nc3cc(N(C)C(=O)Nc4c(Cl)c(OC)cc(OC)c4Cl)ncn3)cc2)CC1 | 107 | 109 | 103 | 108 | 106 | 97.8 | 97.4 | 105 | 77.7 | 73.3 | 35.3 | 115 | 114 | 119 | 124 | 118 | 118 | 113 | 115 | 86 | 76.7 | 47.6 | 114 | 112 | 108 | 124 | 114 | 126 | 111 | 110 | 76.8 | 66.8 | 53.2
3 | Cc1ccccc1C(=O)c1ccc(Nc2ccc(Br)cc2N)cc1Cl | 117 | 122 | 119 | 104 | 114 | 118 | 114 | 114 | 105 | 98.6 | 51.5 | 117 | 122 | 121 | 110 | 119 | 108 | 117 | 113 | 111 | 108 | 53.7 | 117 | 121 | 127 | 119 | 122 | 118 | 117 | 111 | 105 | 89 | 35.5
4 | C[N]1C=C(C=N1)C2=C3\C=N/NC(=O)C4=C3C(=CC(=C4)NC(=O)[C@H](N)C5CCCCC5)[NH]2 | 103 | 103 | 99.7 | 100 | 99.7 | 103 | 94.5 | 81.1 | 65.5 | 45.1 | 12.3 | 98.4 | 101 | 99.1 | 99.9 | 97.3 | 98.5 | 92.7 | 85.3 | 61.7 | 21.8 | 7.78 | 96.2 | 98 | 95.2 | 90.5 | 94.7 | 102 | 85.4 | 79.6 | 58.8 | 18.4 | 11.5
5 | O=C1NC(=O)/C(=C/c2ccc3nccc(-c4ccncc4)c3c2)S1 | 112 | 120 | 122 | 115 | 98.4 | 95.9 | 83.8 | 68.4 | 57.4 | 36.1 | 5.85 | 109 | 107 | 103 | 109 | 96.2 | 74.5 | 64.2 | 50.2 | 32.6 | 17.1 | 7.42 | 104 | 109 | 114 | 115 | 98.8 | 83.3 | 68.2 | 51.1 | 34.3 | 20.6 | 6.67
6 | CC[S+](=O)([O-])c1cccc(-c2cc(C(=O)NC3CCN(C)CC3)c(C)c3[nH]c4ncc(C)cc4c23)c1 | 121 | 122 | 123 | 128 | 123 | 112 | 15.7 | 19.5 | 19 | 26.9 | 34.9 | – | – | – | – | – | – | – | – | – | – | – | – | – | – | – | – | – | – | – | – | – | –
7 | NNCCc1ccccc1 | 116 | 123 | 118 | 115 | 118 | 116 | 115 | 113 | 113 | 106 | 95.3 | 120 | 115 | 120 | 117 | 110 | 119 | 129 | 128 | 109 | 106 | 91.9 | 109 | 116 | 116 | 110 | 123 | 111 | 112 | 116 | 113 | 107 | 96.9
8 | COCC1(CO)C(=O)C2CCN1CC2 (centres undefined) | 90.6 | 103 | 105 | 112 | 108 | 109 | 85.3 | 103 | 81.9 | 37.7 | 4.42 | 92.7 | 109 | 109 | 110 | 106 | 117 | 95.2 | 104 | 77.8 | 53.6 | 6.98 | 103 | 104 | 109 | 115 | 107 | 112 | 96.4 | 101 | 81.8 | 64.2 | 23
9 | O=C(O)CCC1CCC(c2cc(F)ccc2F)([S+](=O)([O-])c2ccc(Cl)cc2)CC1 (centres undefined) | 105 | 114 | 117 | 115 | 114 | 121 | 128 | 118 | 86.7 | 21.5 | 9.14 | 99 | 125 | 117 | 126 | 118 | 116 | 128 | 140 | 109 | 24.3 | 9.78 | 103 | 117 | 123 | 123 | 123 | 118 | 124 | 125 | 112 | 56.7 | 13.2
10 | CN[C@H]1CCC2=CC(=C(OC)C(=C2C/3=C/C=C(OC)\C(=O)/C=C13)OC)OC | 107 | 113 | 104 | 12.9 | 19.9 | 11.1 | 11.2 | 8.53 | 9.25 | 7.37 | 3.31 | 113 | 118 | 102 | 15.9 | 22.2 | 13.3 | 9.95 | 9.19 | 7.3 | 6.54 | 2.29 | 119 | 118 | 102 | 21.1 | 33.4 | 19 | 15.6 | 11.3 | 9.48 | 8.81 | 4.1
11 | CC1=C(C)C(=O)C(C(CCCCCC(=O)O)c2ccccc2)=C(C)C1=O (centres undefined) | 76.1 | 91.6 | 83.8 | 76.4 | 80.6 | 84.5 | 73.8 | 83.9 | 86.2 | 84.5 | 70.6 | 86 | 91.2 | 96.2 | 94.5 | 103 | 97.5 | 82.3 | 96.1 | 72.9 | 66.7 | 56.6 | 70.5 | 77.9 | 71.7 | 84.1 | 84.4 | 85.8 | 79.2 | 80.3 | 67.4 | 72 | 52.1
12 | CC(C)OC(=O)C(C(=O)OC(C)C)=C1S\C=C/S1 | 138 | 124 | 122 | 133 | 113 | 124 | 123 | 124 | 126 | 118 | 101 | – | – | – | – | – | – | – | – | – | – | – | – | – | – | – | – | – | – | – | – | – | –
13 | Cc1onc(-c2ccccc2Cl)c1C(=O)N[C@@H]1C(=O)N2[C@@H]1SC(C)(C)[C@@H]2C(=O)[O-] | 112 | 116 | 113 | 116 | 113 | 113 | 113 | 111 | 110 | 105 | 106 | 119 | 117 | 113 | 111 | 116 | 114 | 116 | 110 | 117 | 101 | 101 | 103 | 111 | 115 | 119 | 126 | 109 | 120 | 105 | 112 | 98.4 | 98.1
14 | OC[C@H]1O[C@H]([C@H](O)[C@@H]1O)N2\C=C/C(=O)NC2=O | 108 | 103 | 99.1 | 111 | 101 | 104 | 109 | 103 | 99.4 | 110 | 99.6 | 104 | 109 | 103 | 103 | 97.6 | 104 | 117 | 95.3 | 107 | 96 | 90.8 | 101 | 89.1 | 95.9 | 101 | 102 | 98.3 | 109 | 97.1 | 96 | 89.5 | 92.4
15 | CC(C)C1NC(=O)C(NC(=O)C2=C3\N=C\4/C(=C(C)\C(=O)\C(=C4C(=O)NC5C(C)OC(=O)C(C(C)C)N(C)C(=O)CN(C)C(=O)C6CCCN6C(=O)C(NC5=O)C(C)C)N)OC3=C(C)C=C2)C(C)OC(=O)C(C(C)C)N(C)C(=O)CN(C)C(=O)C7CCCN7C1=O (centres undefined) | 8.89 | 7.61 | 7.74 | 7.98 | 8.48 | 7.48 | 8.02 | 5.74 | 3.17 | 4.3 | 1.52 | 7.97 | 8.99 | 7.91 | 6.03 | 5.96 | 6.1 | 5.29 | 3.26 | 1.15 | 2.04 | 1.27 | 9.93 | 10.6 | 9.2 | 10.8 | 7.89 | 8.14 | 8.28 | 7.16 | 6.45 | 4.57 | 3.47
16 | CCOC(=O)N1CCN(/[N+]([O-])=N/Oc2ccc([N+](=O)[O-])cc2C#N)CC1 | 97 | 106 | 108 | 107 | 106 | 115 | 113 | 15.9 | 9.82 | 9.87 | 9.31 | 110 | 115 | 117 | 110 | 118 | 115 | 119 | 12.1 | 9.8 | 8.38 | 7.09 | 103 | 101 | 105 | 111 | 113 | 108 | 108 | 16.4 | 10.6 | 9.71 | 9.91
